Test results as given in patent US20180313843A1, “SAMHD1 MODULATION FOR TREATING RESISTANCE TO CANCER THERAPY” (priority 2015, published 2018).
In brackets after ≈: the same amount, converted by molar mass.

Columns and labels:
[1] = tested on: intracellular Ara-CTP, CTP and dCTP levels; assay: Effect of 3-DU and Ara-C on intracellular triphosphate levels; format: cell-based; settings: 3-DU treatment in combination with Ara-C
Protocol: dNTP measurement. 5×10^5 cells were treated with 10 μg/ml Ara-C 13C3 (Santa Cruz) and incubated at 37° C. in a humidified 5% CO2 incubator for 6 hours. Subsequently, cells were washed twice in 1×PBS, pelleted and stored at −20° C. until measurement. The samples were analyzed at the Institute of Clinical Pharmacology (Goethe University Frankfurt) by liquid chromatography-electrospray ionization-tandem mass spectrometry as previously described (reference 8).
Briefly, the analytes were extracted by protein precipitation with methanol. […] Additional to the analytes reported in the publication, 13C3-Ara-CMP, 13C3-Ara-CDP and 13C3-Ara-CTP were quantified using the validated method and cytidine-^13C9, ^15N3-5′-triphosphate as internal standard (IS). The precursor-to-product ion transitions used as quantifiers were m/z 327.0→115.1 for 13C3-Ara-CMP, m/z 407.0→115.1 for 13C3-Ara-CDP and m/z 487.0→115.1 for 13C3-Ara-CTP. A calibration curve was constructed for the quantitation of 13C3-Ara-CMP while no calibration standards were commercially available for 13C3-Ara-CDP and 13C3-Ara-CTP. For this reason, these analytes were quantified semiquantitatively by comparing the peak area ratios (analyte/IS) determined in the differently treated samples. […]

AML cell lines = assay: Cell viability assay (MTT), cytarabine in panel of AML cell lines; format: cell-based; settings: Homo sapiens, read-out: IC50 values (concentrations inhibiting 50% of cell growth) of cytarabine; range over AML cell lines
Protocol: (§1) Cell viability assay. Cell viability of the AML cell lines and primary AML cultures were determined by the 3-(4,5-dimethylthiazol-2-yl)-2,5-diphenyltetrazolium bromide (MTT) dye reduction assay after 96 hour incubation as described previously (reference 7). Due to lower cell proliferation frequencies of the primary cells the CellTiter-Glo® Luminescent Cell Viability Assay (Promega) was used according to manufacturer's instruction. Here, the number of viable cells was determined 96 hours post treatment based on the quantification of the ATP levels.

THP-1 −/− = assay: Cell viability, Ara-C with or without 3-DU and other NAs, SAMHD1 knock-out; format: cell-based, human
Protocol: THP-1 CRISP/Cas9 control and SAMHD1 knock-out cells were provided by Prof. Veit Hornung and cultivated in RPMI supplemented with 10% FCS, 100 IU/ml penicillin, and […] streptomycin. PDX cells were thawed and cultivated as previously described (Vick, 2015).
as §1

OCI-AML3 shSAMHD1 = assay: Cell viability, Ara-C with or without 3-DU, SAMHD1 knock-down; format: cell-based, human; settings: OCI-AML-3, SAMHD1 shRNA compared to control shRNA
HEL SAMHD1 wt = assay: Cell viability, Ara-C with or without 3-DU, SAMHD1 wt over-expression; format: cell-based, human; settings: for dependence of anti-leukemic activity on expression levels of SAMHD1: THP-1 (−/−) vs (+/+), AML panel and HEL versus HEL SAMHD1 wt cells
BFTC 905 = assay: Ara-C/SAMHD1-inhibitor combination treatment, urothelial carcinoma cells; format: cell-based; settings: Homo sapiens, BFTC-905, read-out: IC50 value Ara-C
SIG-M5 cells = assay: Cytarabine toxicity after SAMHD1 shRNA knock-down; format: cell-based, human; settings: SIG-M5, SAMHD1 shRNA compared to control shRNA
[2] = tested on: THP-1 (−/−) and THP-1 (+/+) cells; assay: Cytarabine triphosphate measurement by liquid chromatography tandem mass spectrometry; format: cell-based, human; settings: 10 μg/ml cytarabine for 6 h
Protocol: dNTP measurement. […] Subsequently, cells were washed twice in 1×PBS, pelleted and stored at −20° C. until measurement. The samples were analyzed at the Institute of Clinical Pharmacology (Goethe University Frankfurt) by liquid chromatography-electrospray ionization-tandem mass spectrometry as previously described (reference 8).
Briefly, the analytes were extracted by protein precipitation with methanol. An anion exchange HPLC column (BioBasic AX, Thermo) was used for the chromatographic separation and a 5500 QTrap (Sciex, Darmstadt, Germany) was used as analyzer, operating as triple quadrupole in positive multiple reaction monitoring (MRM) mode. Additional to the analytes reported in the publication, 13C3-Ara-CMP, 13C3-Ara-CDP and 13C3-Ara-CTP were quantified using the validated method and cytidine-^13C9, ^15N3-5′-triphosphate as internal standard (IS). The precursor-to-product ion transitions used as quantifiers were m/z 327.0→115.1 for 13C3-Ara-CMP, m/z 407.0→115.1 for 13C3-Ara-CDP and m/z 487.0→115.1 for 13C3-Ara-CTP. A calibration curve was constructed for the quantitation of 13C3-Ara-CMP while no calibration standards were commercially available for 13C3-Ara-CDP and 13C3-Ara-CTP. For this reason, these analytes were quantified semiquantitatively by comparing the peak area ratios (analyte/IS) determined in the differently treated samples.

THP-1 cells = assay: Cytotoxic effects of cytarabine in VLP-treated THP-1 cells; format: cell-based, human; settings: Vpx-VLPs treated THP-1 cells
[3] = tested on: HELrAra-C, HL-60rAra-C and Molm-13rAra-C; assay: Cytarabine cytotoxicity in Ara-C resistant AML sublines; format: cell-based, human
Protocol: Ara-C resistant cell lines THP-1, HEL, HL-60, Molm13, and Molt4 were established by continuous exposure to increasing drug concentrations and are part of the Resistant Cancer Cell Line (RCCL) collection (http://www.kent.ac.uk/stms/cmp/RCCL/RCCLabout). The generation of resistant cell lines required 1 to 2 years, depending on the cell line used. All cell lines were maintained in IMDM supplemented with 10% FCS (SIG-M5 20% FCS), […] L-Glutamine, 100 IU/ml penicillin, and […] streptomycin at 37° C. in a humidified 5% CO2 incubator. 293T cells were maintained as previously described (Keppler et al).
as §1
Remarkably, expression levels of SAMHD1 were increased in resistant cells relative to the parental cell lines (FIGS. 8A and B).

glioma cell line U251-MG = assay: Effect of Vpx-VLPs on cytotoxic activity of cytarabine in glioma cells; format: cell-based; settings: U251-MG treated with Vpx-VLPs
SAMHD1 = target: T1, SAMHD1 (Homo sapiens, UniProt Q9Y3Z3); assay: Enzymatic in vitro assay with bacterially expressed SAMHD1 protein (triphosphohydrolase activity); format: biochemical; settings: dGTP used as activator of SAMHD1
T1 construct: made in house
Excerpt: SAMHD1 hydrolyzes intracellular dNTPs resulting in a reduction of intracellular dNTP pools.

T1 sequence (Q9Y3Z3 whole entry): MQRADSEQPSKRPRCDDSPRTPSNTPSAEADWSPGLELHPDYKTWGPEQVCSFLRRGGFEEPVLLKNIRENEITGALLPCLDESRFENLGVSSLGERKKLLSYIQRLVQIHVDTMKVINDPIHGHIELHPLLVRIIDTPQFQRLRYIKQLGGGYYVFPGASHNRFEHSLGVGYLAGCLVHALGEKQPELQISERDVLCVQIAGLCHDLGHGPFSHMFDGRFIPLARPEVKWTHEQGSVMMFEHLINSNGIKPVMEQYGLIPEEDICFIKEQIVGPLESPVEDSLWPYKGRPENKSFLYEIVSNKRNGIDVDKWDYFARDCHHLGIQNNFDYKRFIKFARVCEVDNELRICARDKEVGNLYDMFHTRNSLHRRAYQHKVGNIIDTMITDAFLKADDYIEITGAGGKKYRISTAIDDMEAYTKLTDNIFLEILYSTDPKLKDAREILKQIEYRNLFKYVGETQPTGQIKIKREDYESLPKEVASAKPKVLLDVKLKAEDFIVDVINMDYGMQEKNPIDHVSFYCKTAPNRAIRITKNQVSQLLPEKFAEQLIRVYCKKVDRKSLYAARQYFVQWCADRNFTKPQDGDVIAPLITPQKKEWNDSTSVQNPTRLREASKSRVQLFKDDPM

O=C1C=CN([C@@H]2O[C@H](CO)[C@@H](O)[C@H]2O)C(=O)C1 [3-DU, 3-deazauridin]
intracellular Ara-CTP levels [1]: strongly increased
intracellular cytodine-triphosphate (CTP) and dCTP levels [1]: reducing

Nc1ccn([C@@H]2O[C@H](CO)[C@@H](O)[C@@H]2O)c(=O)n1 [Ara-C, cytarabine]
IC50 (AML cell lines): 0.0078 to 0.56 µg/mL (≈ 0.0321 to 2.3 µM)
increase of cytarabine toxicity in SAMHD1 knock-out cells (THP-1 −/−; THP-1 (−/−) relative to control THP-1 (+/+)): about 50 fold
increase of cytarabine toxicity by SAMHD1 knock-down (OCI-AML3 shSAMHD1): about 6 fold
decrease of sensitivity to cytarabine by wt SAMHD1 over-expression (HEL SAMHD1 wt; HEL wt SAMHD1 compared to parental HEL or HEL SAMHD1 D207N): about 70 fold
IC50 (BFTC 905): 0.021 µg/mL
increase of cytarabine toxicity by SAMHD1 knock-down (SIG-M5 cells): ~9 fold
cytarabine triphosphate amounts accumulated, THP-1(−/−) compared with THP-1(+/+) [2]: About 20 fold
increase of cytarabine's anti-leukemic activity (THP-1 cells): about 20 fold
IC50 ([3]; Homo sapiens, read-out: IC50 values of cytarabine, range over highly resistant sublines of HEL, HL-60 and MOLM-13): 24 to 94 µg/mL (≈ 98.7 to 386 µM)
toxicity of cytarabine after reduction of SAMHD1 levels using Vpx-VLPs ([3]; all three cell lines tested): increased toxicity
enhancement of the anti-tumoral activity of cytarabine (glioma cell line U251-MG): up to 10 fold

Nc1nc2c(ncn2[C@@H]2O[C@H](CO)[C@@H](O)[C@@H]2O)c(=O)[nH]1 [Ara-G]
dependence of anti-leukemic activity on expression levels of SAMHD1 (HEL SAMHD1 wt): depends on expression levels of SAMHD1 albeit to a lesser extent than for cytarabine

Nc1nc(Cl)nc2c1ncn2[C@@H]1O[C@H](CO)[C@@H](O)[C@@H]1F [clofarabine]
IC50 lower in THP-1 (−/−) cells than in THP-1 (+/+) cells (THP-1 −/−): 2 fold
dependence of anti-leukemic activity on expression levels of SAMHD1 (HEL SAMHD1 wt): depends on expression levels of SAMHD1 albeit to a lesser extent than for cytarabine

Nc1nc(F)nc2c1ncn2[C@@H]1O[C@H](CO)[C@@H](O)[C@@H]1O [fludarabine]
IC50 lower in THP-1 (−/−) cells than in THP-1 (+/+) cells (THP-1 −/−): 5 fold

COc1nc(N)nc2c1ncn2[C@@H]1O[C@H](CO)[C@@H](O)[C@@H]1O [nelarabine]
IC50 lower in THP-1 (−/−) cells than in THP-1 (+/+) cells (THP-1 −/−): 5 fold
dependence of anti-leukemic activity on expression levels of SAMHD1 (HEL SAMHD1 wt): depends on expression levels of SAMHD1 albeit to a lesser extent than for cytarabine

cytarabine triphosphate
substrate or activator of SAMHD1's triphosphohydrolase activity (SAMHD1): direct substrate, but not as an activator
